How the values were obtained:
Test in all cases: Micro- and macronutrients tested against trunk disease fungi
Settings in all cases: among all micro- and macronutrients tested
D. seriata = test system: D. seriata
Description: (§1) However, these products are not registered as organic products, leaving organic growers with no alternatives for controlling trunk diseases.

Pa. chlamydospora = test system: Pa. chlamydospora
Description: as §1

Pm. Alephilum = test system: Pm. Alephilum
Description: as §1

E. lata = test system: E. lata
Description: as §1

P. viticola = test system: P. viticola
Description: as §1

[B] [boron (B), boron]
most effective: effectiveness against D. seriata (D. seriata) | effectiveness against Pa. chlamydospora (Pa. chlamydospora) | effectiveness against Pm. Alephilum (Pm. Alephilum) | effectiveness against E. lata (E. lata) | effectiveness against P. viticola (P. viticola)

[Zn] [zinc (Zn), zinc]
most effective: effectiveness against D. seriata (D. seriata) | effectiveness against Pa. chlamydospora (Pa. chlamydospora) | effectiveness against Pm. Alephilum (Pm. Alephilum) | effectiveness against E. lata (E. lata) | effectiveness against P. viticola (P. viticola)

— US10159256B2, “Organic pruning wound composition” (The Regents of the University of California, priority 2014, dated 2018)
